In this experiment the test system is HTLV-I proviral DNA. As to the kind of experiment: PCR of proviral HTLV-I DNA in co-cultured PBMCs. It is filed as cell-based. Particulars: for relative intensity of amplified HTLV-I versus infected controls (PBMC+MT-2 cells): two and four weeks, all concentrations; for concentration giving less integration of proviral DNA by PCR: weeks 2 and 4. As to the method:
Co-Culture for HTLV-I Replication: Cell cultures were incubated at 37° C./5% CO2 for four weeks. Cell viability and density was monitored by trypan blue dye exclusion test. Cell density was readjusted to 8×10^5 cells per mL on days 3, 7, 10, 14, 21 and 28. Compound was added with the half-volume fresh medium exchange on days 3, 7, and 10. Supernatant was collected on days 14, 21 and 28 for measurement of HTLV-I virus replication by p19 Gag ELISA. Cell samples were also collected on days 14 and 28 for genomic DNA extraction and PCR analysis of HTLV-I proviral DNA. Untreated PBMCs co-cultured with MT-2 cells, PBMCs alone, and mitomycin C-treated MT-2 cells alone were cultured in parallel as controls.
(§1) PCR of Proviral HTLV-I DNA: The presence of HTLV-I proviral DNA at 2 and 4 weeks in treated and untreated PBMC cells was examined using a PCR assay. Total DNA was extracted from frozen cell pellets using Qiagen DNEasy Blood and Tissue kits according to the manufacturer's recommended method for extraction from cultured cells. DNA was eluted in 200 μl of Buffer AE and the concentration was determined by absorbance at 260 nm in a Spectramax 386 Plus plate reader. Fifty nanograms of extracted DNA was subjected to two separate PCR amplifications using primer sets for HTLV-I and human GAPDH. Amplifications were performed using PCR primer sets designed at ImQuest BioSciences and synthesized by IDT (Coraville, Id.). Amplification of HTLV-I proviral DNA was performed using 50 ng of extracted DNA in a 25 μl reaction volume with TaqPro complete (Denville Scientific, Metuchen, N.J.) and DNA oligonucleotide primers (0.2 μM each) HTLV-3281-F (5′-AACTTCAAGCCCTACTTGGCGAGA-3′[SED ID NO.: 1]) and HTLV-3666-R (5′-TGTATGGTTTGGCAGAGTAGCCCA-3′ [SED ID NO.: 2]). Amplification of human GAPDH DNA sequences was performed using 50 ng of extracted DNA in a 25 μl reaction volume with TaqPro complete and DNA oligonucleotide primers (0.2 μM each) hGAPDH-gF1 (5′-GAAGGAAATGAATGGGCAGCCGTT-3′ [SED ID NO.: 3]) and GAPDH-gR1 (5′-ATTTGCCAAGTTGCCTGTCCTTCC-3′ [SED ID NO.: 4]). Amplification conditions for both HTLV-I and GAPDH consisted of an initial denaturation step of 95° C. for 5 min followed by 40 cycles of 95° C. for 30 sec, 62° C. for 30 sec, 72° C. for 45 sec and a final extension of 72° C. for 5 min. The amplified DNA products were evaluated by agarose gel electrophoresis and ethidium bromide staining.
as §1, with “AGA-3′ [SED” for “AGA-3′[SED”, “5])” for “1])”, “6]).” for “2]).”, “7])” for “3])”, “8]). […]” for “4]). Amplification conditions for both HTLV-I and GAPDH consisted of an initial denaturation step of 95° C. for 5 min followed by 40 cycles of 95° C. for 30 sec, 62° C. for 30 sec, 72° C. for 45 sec and a final extension of 72° C. for 5 min. The amplified DNA products were evaluated by agarose gel electrophoresis and ethidium bromide staining.”

Turning to `CCCCCCCCCCCCCCCCOCCCOP(=O)(O)CO[C@H](C)Cn1cnc2c(N)ncnc21` [HDP-TFV, 3-(hexadecyloxy)propyl hydrogen ((R)-1-(6-amino-9H-purin 9-yl)propan-2-yloxy)methylphosphonate], the “inhibition of HTLV proviral DNA accumulation” value (four weeks of treatment, lower concentrations) is listed as “apparent”.

Take `Nc1ccn(C[C@@H](CO)OCP(=O)(O)O)c(=O)n1` [Cidofovir, (S)-9-(3-hydroxy-2-phosphonylmethoxypropyl)cytosine]: for the setting “two weeks of treatment”, the “concentration inhibiting accumulation of HTLV proviral DNA” value turned out to be 100 µM.

With `CCCCCCCCCCCCCCCCOCCCOP(=O)(O)CO[C@H](CO)Cn1ccc(N)nc1=O` [HDP-CDV, hexadecyloxypropyl cidofovir], the “concentration inhibiting accumulation of HTLV proviral DNA” value reads like this: (four weeks of treatment) “all concentrations”; (two weeks of treatment) at least 0.2 µM.

On to `C[C@H](Cn1cnc2c(N)ncnc21)OCP(=O)(O)O` [Tenofovir, (R)-9-(2-phosphonylmethoxypropyl)adenine], for which the “relative intensity of amplified HTLV-I versus infected controls (PBMC+MT-2 cells)” value is given as “either equal or less than” and the “concentration giving less integration of proviral DNA by PCR” value amounted to 25 µM.

For the compound `Cc1cn([C@H]2C[C@H](N=[N+]=[N-])[C@@H](CO)O2)c(=O)[nH]c1=O` [AZT, 3′-azido-2′,3′-dideoxythymidine], the “relative intensity of amplified HTLV-I versus infected controls (PBMC+MT-2 cells)” value is “either equal or less than” and the “concentration giving less integration of proviral DNA by PCR” value is “above 0.1 μM”.

(Values after US20140011769A1, “Methods of Treating Retroviral Infections and Related Dosage Regimes” (Chimerix, Inc., priority 2012, published 2014).)
